Measured values published in US20250066389A1, “HETEROCYCLIC AMIDES AND METHODS OF USING THE SAME” (Rgenta Therapeutics, Inc., priority 2021, published 2025).

What follows are compounds tested on PMS1 (assay: Mini-Gene Reporter Assay—PMS1 (firefly luciferase mini-gene reporter transiently transfected into HEK293 cells)). Settings: Homo sapiens; at 5 uM; mini-gene firefly luciferase reporter in HEK293 cells; read-out: PMS1 % Effect at 5 uM.
Assay type: cell-based
In short: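 Luminescence (RLU) read-out of exon inclusion: compound dilutions, tested in duplicate, act on transiently transfected HEK293 cells carrying a firefly luciferase reporter fused downstream of the PMS1 skipped-exon region. Potency derived by Levenberg-Marquardt curve fitting, with percent effect at 5 μM.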
With CCOc1cc2nn(C)cc2cc1C(=O)Nc1cnc(NCc2cnn3c2CNCC3)nc1 [Compound 409] the activation at 5 µM was less than 50%.
Compound CCOc1cc2nn(C)cc2cc1C(=O)Nc1cnc(N2CCC(N)(CC)CC2)nc1 [Compound 410] has an activation at 5 µM greater than 75%.
For CCOc1cc2nn(C)cc2cc1C(=O)Nc1cnc(NCC2CNCCC2(F)F)nc1 (stereo not shown) [Compound 411], the activation at 5 µM was less than 50%.
CCOc1cc2nn(C)cc2cc1C(=O)Nc1cnc(N2CC(NC)C(C)(C)C2)nc1 (stereo not shown) [Compound 412] was tested, and the activation at 5 µM was less than 50%.
With CCOc1cc2nn(C)cc2cc1C(=O)Nc1cnc(NCC2CNC(C)C2)nc1 (stereo not shown) [Compound 413] the activation at 5 µM was less than 50%.
Work on CCOc1cc2nn(C)cc2cc1C(=O)Nc1cnc(N2CCC(n3ncc4c3CNC4)CC2)nc1 [Compound 414] yielded an activation at 5 µM of less than 50%.
In the case of CCOc1cc2nn(C)cc2cc1C(=O)Nc1cnc(NC2CCCNC2C)nc1 (stereo not shown) [Compound 415], the activation at 5 µM is reported as less than 50%.
With CCOc1cc2nn(C)cc2cc1C(=O)Nc1cnc(N2CC(N)CC2C)nc1 (stereo not shown) [Compound 416] the activation at 5 µM was 50 to 75%.
For CCOc1cc2nn(C)cc2cc1C(=O)Nc1cnc(NCCC2CC(F)(F)CN2)nc1 (stereo not shown) [Compound 417], the activation at 5 µM was less than 50%.
CCOc1cc2nn(C)cc2cc1C(=O)Nc1cnc(N2CCC(N)(c3cccc(F)c3)C2)nc1 (stereo not shown) [Compound 418] showed an activation at 5 µM of less than 50%.
CCOc1cc2nn(C)cc2cc1C(=O)Nc1cnc(NCC(N)c2ccc(F)cc2)nc1 (stereo not shown) [Compound 419] showed an activation at 5 µM of less than 50%.
Work on CCOc1cc2nn(C)cc2cc1C(=O)Nc1cnc(NCC2(CN)CCC2)nc1 [Compound 421] yielded an activation at 5 µM of less than 50%.
CCOc1cc2nn(C)cc2cc1C(=O)Nc1cnc(N2CC(N)C(C)(C)C2)nc1 (stereo not shown) [Compound 422] gave an activation at 5 µM of less than 50%.
Compound CCOc1cc2nn(C)cc2cc1C(=O)Nc1cnc(NCC2NCCc3sccc32)nc1 (stereo not shown) [Compound 423] has an activation at 5 µM of less than 50%.
CCOc1cc2nn(C)cc2cc1C(=O)Nc1cnc(NC(C)CNC)nc1 (stereo not shown) [Compound 424] was tested, and the activation at 5 µM was less than 50%.
Work on CCOc1cc2nn(C)cc2cc1C(=O)Nc1cnc(NCC[C@@H]2C[C@H](OC)CN2)nc1 [Compound 425] yielded an activation at 5 µM of less than 50%.
CCOc1cc2nn(C)cc2cc1C(=O)Nc1cnc(NCC2=CCNCC2)nc1 [Compound 426] gave an activation at 5 µM of less than 50%.
In the case of CCOc1cc2nn(C)cc2cc1C(=O)Nc1cnc(N2C[C@@H](F)C[C@H]2CN)nc1 [Compound 427], the activation at 5 µM is reported as less than 50%.
With CCOc1cc2nn(C)cc2cc1C(=O)Nc1cnc(NCC2CCCCNC2)nc1 (stereo not shown) [Compound 428] the activation at 5 µM was less than 50%.
CCOc1cc2nn(C)cc2cc1C(=O)Nc1cnc(N2CCC3(CNCCO3)C2)nc1 (stereo not shown) [Compound 429] showed an activation at 5 µM of less than 50%.
Compound CCOc1cc2nn(C)cc2cc1C(=O)Nc1cnc(NCC2CCNCC2(F)F)nc1 (stereo not shown) [Compound 431] has an activation at 5 µM of less than 50%.
In the case of CCOc1cc2nn(C)cc2cc1C(=O)Nc1cnc(N2C[C@H](O)C[C@@H]2CN)nc1 [Compound 433], the activation at 5 µM is reported as less than 50%.
CCOc1cc2nn(C)cc2cc1C(=O)Nc1cnc(NCC2CCNCC2C)nc1 (stereo not shown) [Compound 434] was tested, and the activation at 5 µM was less than 50%.
CCOc1cc2nn(C)cc2cc1C(=O)Nc1cnc(N2CCCC(C)(CN)C2)nc1 (stereo not shown) [Compound 435] gave an activation at 5 µM of less than 50%.
With CCOc1cc2nn(C)cc2cc1C(=O)Nc1cnc(N2CC3(CNCCO3)C2)nc1 [Compound 436] the activation at 5 µM was less than 50%.
Work on CCOc1cc2nn(C)cc2cc1C(=O)Nc1cnc(N2CCCC2CNC)nc1 (stereo not shown) [Compound 437] yielded an activation at 5 µM of less than 50%.
Compound CCOc1cc2nn(C)cc2cc1C(=O)Nc1cnc(N(C)C[C@H]2CCCN2)nc1 [Compound 438] has an activation at 5 µM of less than 50%.
For CCOc1cc2nn(C)cc2cc1C(=O)Nc1cnc(NCC2(C)CCNC2)nc1 (stereo not shown) [Compound 439], the activation at 5 µM was less than 50%.
For CCOc1cc2nn(C)cc2cc1C(=O)Nc1cnc(N2C[C@@H](F)C[C@H]2CNC)nc1 [Compound 440], the activation at 5 µM was less than 50%.
Compound CCOc1cc2nn(C)cc2cc1C(=O)Nc1cnc(N2CCCC3(CCNC3)C2)nc1 (stereo not shown) [Compound 441] has an activation at 5 µM of less than 50%.
Work on CCOc1cc2nn(C)cc2cc1C(=O)Nc1cnc(N2CCC3(CCCN3)CC2)nc1 [Compound 442] yielded an activation at 5 µM greater than 75%.
CCOc1cc2nn(C)cc2cc1C(=O)Nc1cnc(NC[C@@H]2CC(F)(F)CN2)nc1 [Compound 443] showed an activation at 5 µM of less than 50%.
Work on CCOc1cc2nn(C)cc2cc1C(=O)Nc1cnc(N2CC(N)C3(CC3)C2)nc1 (stereo not shown) [Compound 444] yielded an activation at 5 µM of less than 50%.
For CCOc1cc2nn(C)cc2cc1C(=O)Nc1cnc(NCc2ccc(CN)cc2F)nc1 [Compound 445], the activation at 5 µM was less than 50%.
CCOc1cc2nn(C)cc2cc1C(=O)Nc1cnc(N(C)CC2CCCN2)nc1 (stereo not shown) [Compound 446] showed an activation at 5 µM of less than 50%.
CCOc1cc2nn(C)cc2cc1C(=O)Nc1cnc(NCCC2(O)CNC2)nc1 [Compound 447] showed an activation at 5 µM of less than 50%.
With CCOc1cc2nn(C)cc2cc1C(=O)Nc1cnc(N(C)CCN2CCNCC2)nc1 [Compound 448] the activation at 5 µM was less than 50%.
CCOc1cc2nn(C)cc2cc1C(=O)Nc1cnc(N(C)CC2CCNC2)nc1 (stereo not shown) [Compound 449] gave an activation at 5 µM of less than 50%.
In the case of CCOc1cc2nn(C)cc2cc1C(=O)Nc1cnc(NC[C@H]2CCCNC2)nc1 [Compound 450], the activation at 5 µM is reported as less than 50%.
CCOc1cc2nn(C)cc2cc1C(=O)Nc1cnc(NCc2ccccc2N2CCNCC2)nc1 [Compound 451] showed an activation at 5 µM of less than 50%.
For CCOc1cc2nn(C)cc2cc1C(=O)Nc1cnc(N2CCC3(CC2)CNCCO3)nc1 [Compound 452], the activation at 5 µM was less than 50%.
CCOc1cc2nn(C)cc2cc1C(=O)Nc1cnc(N2CC(C)NCC2C)nc1 (stereo not shown) [Compound 453] was tested, and the activation at 5 µM was 50 to 75%.
For CCOc1cc2nn(C)cc2cc1C(=O)Nc1cnc(N2CCC3(CCNCC3)C2)nc1 [Compound 454], the activation at 5 µM was less than 50%.
CCOc1cc2nn(C)cc2cc1C(=O)Nc1cnc(N2CCCC(CCN)C2)nc1 (stereo not shown) [Compound 455] showed an activation at 5 µM of less than 50%.
CCOc1cc2nn(C)cc2cc1C(=O)Nc1cnc(N2CCOC3(CCNCC3)C2)nc1 [Compound 459] showed an activation at 5 µM of less than 50%.
With CCOc1cc2nn(C)cc2cc1C(=O)Nc1cnc(NCCC2CCCCN2)nc1 (stereo not shown) [Compound 460] the activation at 5 µM was less than 50%.
In the case of CCOc1cc2nn(C)cc2cc1C(=O)Nc1cnc(NCCC2CCCNC2)nc1 (stereo not shown) [Compound 462], the activation at 5 µM is reported as less than 50%.
CCOc1cc2nn(C)cc2cc1C(=O)Nc1cnc(N2CCC(NC)C2)nc1 (stereo not shown) [Compound 463] showed an activation at 5 µM greater than 75%.
For CCOc1cc2nn(C)cc2cc1C(=O)Nc1cnc(N2C[C@H]3CNC[C@H]3C2)nc1 [Compound 464], the activation at 5 µM was 50 to 75%.
Compound CCOc1cc2nn(C)cc2cc1C(=O)Nc1cnc(NC[C@@H]2CCNC2)nc1 [Compound 465] has an activation at 5 µM of less than 50%.
CCOc1cc2nn(C)cc2cc1C(=O)Nc1cnc(N2CCCC(NC)C2)nc1 (stereo not shown) [Compound 466] gave an activation at 5 µM of less than 50%.
With CCOc1cc2nn(C)cc2cc1C(=O)Nc1cnc(N2C[C@@H]3C[C@H]2CN3)nc1 [Compound 467] the activation at 5 µM was less than 50%.
With CCOc1cc2nn(C)cc2cc1C(=O)Nc1cnc(NCC2CNC2)nc1 [Compound 468] the activation at 5 µM was less than 50%.
CCOc1cc2nn(C)cc2cc1C(=O)Nc1cnc(NCC2CCCCN2)nc1 (stereo not shown) [Compound 469] gave an activation at 5 µM of less than 50%.
For CCOc1cc2nn(C)cc2cc1C(=O)Nc1cnc(NC[C@@H]2CCCN2)nc1 [Compound 470], the activation at 5 µM was less than 50%.
For CCOc1cc2nn(C)cc2cc1C(=O)Nc1cnc(NCCNC)nc1 [Compound 472], the activation at 5 µM was less than 50%.
CCOc1cc2nn(C)cc2cc1C(=O)Nc1cnc(N2CCC(NC)CC2)nc1 [Compound 473] gave an activation at 5 µM of less than 50%.
Work on CCOc1cc2nn(C)cc2cc1C(=O)Nc1cnc(NC[C@H]2CCCN2)nc1 [Compound 475] yielded an activation at 5 µM of less than 50%.
Compound CCOc1cc2nn(C)cc2cc1C(=O)Nc1cnc(N2CCNCC2)nc1 [Compound 477] has an activation at 5 µM of 50 to 75%.
CCOc1cc2nn(C)cc2cc1C(=O)Nc1cnc(N(C)C2CCNCC2)nc1 [Compound 478] showed an activation at 5 µM of 50 to 75%.
CCOc1cc2nn(C)cc2cc1C(=O)Nc1cnc(N2CC(N)C2)nc1 [Compound 479] gave an activation at 5 µM of less than 50%.
CCOc1cc2nn(C)cc2cc1C(=O)Nc1cnc(N2CCN[C@@H](C)C2)nc1 [Compound 480] gave an activation at 5 µM greater than 75%.
CCOc1cc2nn(C)cc2cc1C(=O)Nc1cnc(N2CCC(N)CC2)nc1 [Compound 481] was tested, and the activation at 5 µM was less than 50%.
CCOc1cc2nn(C)cc2cc1C(=O)Nc1cnc(NCC2CCCNC2)nc1 (stereo not shown) [Compound 483] gave an activation at 5 µM of less than 50%.
For CCOc1cc2nn(C)cc2cc1C(=O)Nc1cnc(N(C)CCNC)nc1 [Compound 484], the activation at 5 µM was less than 50%.
With CCOc1cc2nn(C)cc2cc1C(=O)Nc1cnc(N2CCCNCC2)nc1 [Compound 485] the activation at 5 µM was less than 50%.
Work on CCOc1cc2nn(C)cc2cc1C(=O)Nc1cnc(N2CCNC(C)C2)nc1 (stereo not shown) [Compound 487] yielded an activation at 5 µM greater than 75%.
CCOc1cn2nc(C)cc2cc1C(=O)Nc1cnc(NCC2(F)CNCCOC2)cn1 (stereo not shown) [Compound 489] showed an activation at 5 µM of less than 50%.
Compound CCOc1cn2nc(C)cc2cc1C(=O)Nc1cnc(N2CCNC(CC(F)(F)F)C2)cn1 (stereo not shown) [Compound 490] has an activation at 5 µM of 50 to 75%.
In the case of CCOc1cn2nc(C)cc2cc1C(=O)Nc1cnc(N2CC3CCC2C2CNCC32)cn1 (stereo not shown) [Compound 492], the activation at 5 µM is reported as 50 to 75%.
For CCOc1cn2nc(C)cc2cc1C(=O)Nc1cnc(NCC2(F)CC(N)C2)cn1 (stereo not shown) [Compound 493], the activation at 5 µM was less than 50%.
CCOc1cn2nc(C)cc2cc1C(=O)Nc1cnc(NC2CCCCC23CCNC3)cn1 (stereo not shown) [Compound 494] showed an activation at 5 µM of less than 50%.
CCOc1cn2nc(C)cc2cc1C(=O)Nc1cnc(NCC2CNCC23CC3)cn1 (stereo not shown) [Compound 496] showed an activation at 5 µM greater than 75%.
CCOc1cn2nc(C)cc2cc1C(=O)Nc1cnc(NC2CCC3CC2CN3)cn1 (stereo not shown) [Compound 497] showed an activation at 5 µM greater than 75%.
In the case of CCOc1cn2nc(C)cc2cc1C(=O)Nc1cnc(N2CCCCC3(CCNC3)C2)cn1 (stereo not shown) [Compound 499], the activation at 5 µM is reported as less than 50%.
CCOc1cn2nc(C)cc2cc1C(=O)Nc1cnc(NC2CNCC2(C)C)cn1 (stereo not shown) [Compound 500] was tested, and the activation at 5 µM was less than 50%.
Work on CCOc1cn2nc(C)cc2cc1C(=O)Nc1cnc(N2CCC(N)(CC)CC2)cn1 [Compound 502] yielded an activation at 5 µM greater than 75%.
CCOc1cn2nc(C)cc2cc1C(=O)Nc1cnc(N2CC(NC)C(C)(C)C2)cn1 (stereo not shown) [Compound 503] was tested, and the activation at 5 µM was greater than 75%.
With CCOc1cn2nc(C)cc2cc1C(=O)Nc1cnc(N2CCC(C3(O)CCNCC3)CC2)cn1 [Compound 505] the activation at 5 µM was 50 to 75%.
